Reference: PMC10600247, “Impact of C- and N-terminal protection on the stability, metal chelation and antimicrobial properties of calcitermin” (Scientific Reports, 2023)
Residues, ends and D or L forms follow the SMILES beside them.

Legend:
[1] = Description: Stability constants for proton and metal complexes were obtained from pH-metric titration curves registered at T = 298 K and ionic strength 0.1 M (KCl). The potentiometric apparatus was previously described. Solutions were titrated with 0.1 M carbonate-free KOH. The electrode was daily calibrated for hydrogen ion concentration by titrating HNO3 with the standard base solution, under the same experimental conditions as above. The asymmetry potential and the slope of the electrode couple were computed by means of […][41] and Glee[42] programs. The purities and exact concentrations of the ligand solutions were determined by the Gran method. The […][44] program was employed for the overall formation constant (β) calculations, referred to the following equilibrium equation: pM + qL + rH ⇆ MpLqHr (charges omitted; p is 0 in the case of ligand protonation; r can be negative). The computed standard deviations (referring to random errors only) were given by the program itself and are shown in parentheses as uncertainties on the last significant figure. Hydrolysis constants for metal ions were taken from the literature[45],[46]. The distribution and competition diagrams were computed using the HYSS program.
1. Wild-type calcitermin: thermodynamic data
Wild-type calcitermin (WT) has been previously investigated by our research group in aqueous solutions and ionic medium NaClO4.1 For the sake of comparison, potentiometric studies of WT and its copper and zinc complexes have been performed in a different ionic medium (KCl 0.1 M). The study of the speciation under different experimental conditions, changing ionic medium and metal-ligand ratio, is essential to comprehensively describe the thermodynamics of calcitermin, which is usually found in multicomponent media like biological fluids.
Table S1. Equilibrium constants for protonation of WT and its Cu2+ and Zn2+ complex formation at T = 298 K and I = 0.1 M (KCl). Values in parentheses are standard deviations on the last significant figure.

E. coli (ATCC 25922) = assay: In vitro anti-E. coli CFU assay; type: cell-based, Escherichia coli; settings: pH 5.4; for mean CFU number ± S.D.: per 0.1 mL
Procedure: All microbes were grown at 37 °C in Tryptic Soy Broth (TSB; Biolife, Milan, Italy) or Tryptic Soy Agar plates (TSA, Biolife, Milan, Italy). Peptides were tested at a final concentration C = 0.128, 0.064, 0.032 mg/mL, in the presence or absence of ZnCl2 or CuCl2, at a M:L molar ratio 0.9:1. Briefly, all the microbes were expanded in TSB at 37 °C under agitation for 12 h and then sub-cultured by 1:10 dilution in TSB under the same conditions until reaching OD600nm = 0.3–0.4, as measured by spectrophotometric reading using a GENESYS 10S UV–Vis spectrophotometer (Thermo Scientific, Milan, Italy), corresponding to 0.9–1.2 × 10^7 colony forming units (CFU) per mL, 1.5–2 × 10^8 CFU/mL and 2.4–3.2 × 10^8 CFU/mL, for C. albicans, S. aureus and E. coli respectively. The cultures were then centrifuged at 4500 rpm for 10 min in a SL 8 centrifuge (TX-150 Rotor) (Thermo Scientific, Milan, Italy), and the cellular pellets were washed with PBS pH 5.4. Pelletized cultures were then suspended in 10 mL of PBS pH 5.4, then the suspensions were diluted to a final concentration of 10^4 CFU/mL. Aliquots of 100 µl (corresponding to 10^3 CFU) were seeded in each well of a 96-wells plate. 3 µl of TSB at pH 5.4 were added to each well to obtain a final 1.5% TSB concentration in the culture medium. Peptides were serially diluted in PBS pH 5.4 to C = 0.257, 0.128, and 0.064 mg/mL. ZnCl2 and CuCl2 solutions were added where requested to obtain a M:L ratio 0.9:1. 100 µl of the prepared peptides ± ZnCl2/CuCl2 solutions were then added to each well, obtaining the final 0.128, 0.064 and 0.032 mg/mL peptide concentrations in a total 0.2 mL volume. PBS alone and PBS + ZnCl2/CuCl2 solutions were included as controls. The plates were incubated at 37 °C on a platform rocker with slow stirring for 3 and 24 h. At the end of the incubation times, 100 µl aliquots were taken from each sample and diluted in PBS pH 5.4 to be seeded on TSA plates. Specifically, aliquots were diluted 1:10 at 3 h, and 1:200, 1:100,000 and 1:10 at 24 h, for C. albicans, E. coli, and S. aureus respectively. After incubation for 24 h at 37 °C, grown CFUs were enumerated. Samples were assayed in triplicate in two independent experiments. Student’s t-test was used for the evaluation of significance in biological tests; a p value ≤ 0.05 was considered significant.

[2] = T = 298 K, I = 0.1 M (KCl), charges omitted
[3] = peptide 0.032 mg/mL + CuCl2 (0.9:1), 24 h
[4] = peptide 0.032 mg/mL + ZnCl2 (0.9:1), 24 h
[5] = peptide 0.064 mg/mL + ZnCl2 (0.9:1), 24 h
[6] = peptide 0.128 mg/mL + ZnCl2 (0.9:1), 24 h
[7] = peptide alone 0.032 mg/mL, 24 h
[8] = peptide alone 0.064 mg/mL, 24 h

SMILES: CC[C@H](C)[C@H](NC(=O)[C@H](C)NC(=O)[C@@H](NC(C)=O)C(C)C)C(=O)N[C@@H](C)C(=O)N[C@@H](CC(C)C)C(=O)N[C@@H](CCCCN)C(=O)N[C@@H](C)C(=O)N[C@@H](C)C(=O)N[C@@H](Cc1c[nH]cn1)C(=O)N[C@@H](Cc1ccc(O)cc1)C(=O)N[C@@H](Cc1c[nH]cn1)C(=O)N[C@H](C(=O)N[C@@H](Cc1c[nH]cn1)C(=O)N[C@@H](CCCCN)C(=O)N[C@@H](CCC(=O)O)C(=O)O)[C@@H](C)O [L1, Ac-VAIALKAAHYHTHKE] (Ac-VAIALKAAHYHTHKE-OH)
- pKa [CuH2L] [1]: 4.40
- pKa [CuH-1L] [1]: 6.88
- pKa [CuHL] [1]: 5.38
- pKa [CuL] [1]: 6.59
- pKa [ZnHL] [1]: 5.80
- pKa [ZnL] [1]: 7.33
- logβ [CuH2L] [1, 2]: 18.21(3)
- logβ [CuH-1L] [1, 2]: 1.84(3)
- logβ [CuHL] [1, 2]: 13.81(2)
- logβ [CuL] [1, 2]: 8.43(2)
- logβ [ZnHL] [1, 2]: 11.00(5)
- logβ [ZnL] [1, 2]: 5.21(2)
- mean CFU number ± S.D. (E. coli (ATCC 25922); peptide 0.032 mg/mL + CuCl2 (0.9:1), 3 h): 372 ± 16 CFU
- CFU decrease/increase with respect to untreated controls (E. coli (ATCC 25922); [3]): -15%
- mean CFU number ± S.D. (E. coli (ATCC 25922); [3]): 147 ± 6 CFU
- mean CFU number ± S.D. (E. coli (ATCC 25922); peptide 0.032 mg/mL + ZnCl2 (0.9:1), 3 h): 343 ± 13 CFU
- CFU decrease/increase with respect to untreated controls (E. coli (ATCC 25922); [4]): -6%
- mean CFU number ± S.D. (E. coli (ATCC 25922); [4]): 163 ± 18 CFU
- mean CFU number ± S.D. (E. coli (ATCC 25922); peptide 0.064 mg/mL + CuCl2 (0.9:1), 3 h): 385 ± 24 CFU
- mean CFU number ± S.D. (E. coli (ATCC 25922); peptide 0.064 mg/mL + CuCl2 (0.9:1), 24 h): 58 ± 8 CFU
- mean CFU number ± S.D. (E. coli (ATCC 25922); peptide 0.064 mg/mL + ZnCl2 (0.9:1), 3 h): 198 ± 7 CFU
- CFU decrease/increase with respect to untreated controls (E. coli (ATCC 25922); [5]): -13%
- mean CFU number ± S.D. (E. coli (ATCC 25922); [5]): 149 ± 7 CFU
- mean CFU number ± S.D. (E. coli (ATCC 25922); peptide 0.128 mg/mL + CuCl2 (0.9:1), 3 h): 151 ± 30 CFU
- mean CFU number ± S.D. (E. coli (ATCC 25922); peptide 0.128 mg/mL + CuCl2 (0.9:1), 24 h): 17 ± 18 CFU
- mean CFU number ± S.D. (E. coli (ATCC 25922); peptide 0.128 mg/mL + ZnCl2 (0.9:1), 3 h): 45 ± 18 CFU
- CFU decrease/increase with respect to untreated controls (E. coli (ATCC 25922); [6]): +8%
- mean CFU number ± S.D. (E. coli (ATCC 25922); [6]): 187 ± 12 CFU
- mean CFU number ± S.D. (E. coli (ATCC 25922); peptide alone 0.032 mg/mL, 3 h): 749 ± 47 CFU
- CFU decrease/increase with respect to untreated controls (E. coli (ATCC 25922); [7]): +1%
- mean CFU number ± S.D. (E. coli (ATCC 25922); [7]): 174 ± 6 CFU
- mean CFU number ± S.D. (E. coli (ATCC 25922); peptide alone 0.064 mg/mL, 3 h): 634 ± 10 CFU
- CFU decrease/increase with respect to untreated controls (E. coli (ATCC 25922); [8]): -15%
- mean CFU number ± S.D. (E. coli (ATCC 25922); [8]): 146 ± 17 CFU
- mean CFU number ± S.D. (E. coli (ATCC 25922); peptide alone 0.128 mg/mL, 3 h): 625 ± 76 CFU
- mean CFU number ± S.D. (E. coli (ATCC 25922); peptide alone 0.128 mg/mL, 24 h): 140 ± 11 CFU
